According to patent publication US4252984A, “Phenol ethers” (Synthelabo, priority 1975, dated 1981):
Where two headings read alike, the source gives them in different places.

Tests used:
in vivo = conditions: mouse, mortality over 5 days, confidence limits: 95%
Description: Acute toxicity: The acute toxicity for oral and intravenous administration was evaluated for CD1 male mice of average weight 20 g. The mortality was recorded over a period of 5 days following the administration of the compounds.

β1 -adrenergic receptors = target: T1, β1 -adrenergic receptors (Rattus norvegicus, UniProt P18090); experiment: Studies on isolated organs: antagonism of isoprenaline-induced tachycardia and increase in contractile force in isolated rat auricles (pA2); design: species or system rats; conditions: for Effect on inotropism, ratio of activity to that of metoprolol: isoprenaline contractile force; for Effect on inotropism, ratio of activity to that of metoprolol / Effect on chronotropism, ratio of activity to that of metoprolol: metoprolol = 1.0; for Kb / pA2, effect on chronotropism / pA2, effect on inotropism: 31° C.
T1 construct: from tissue; host or cells: isolated rat auricles (atria)
T1 sequence (P18090 whole entry): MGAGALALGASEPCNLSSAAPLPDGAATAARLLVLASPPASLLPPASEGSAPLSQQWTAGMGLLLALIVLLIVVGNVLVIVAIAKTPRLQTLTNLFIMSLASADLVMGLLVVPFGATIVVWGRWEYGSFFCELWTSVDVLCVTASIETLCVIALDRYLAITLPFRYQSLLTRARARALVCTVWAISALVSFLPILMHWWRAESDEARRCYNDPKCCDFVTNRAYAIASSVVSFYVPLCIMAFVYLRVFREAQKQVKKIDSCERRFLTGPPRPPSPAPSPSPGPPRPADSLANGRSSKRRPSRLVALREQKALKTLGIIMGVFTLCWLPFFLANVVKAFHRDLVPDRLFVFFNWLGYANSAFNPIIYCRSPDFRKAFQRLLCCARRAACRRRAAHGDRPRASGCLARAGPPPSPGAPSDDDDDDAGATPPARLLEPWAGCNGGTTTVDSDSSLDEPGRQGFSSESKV

[1] = intravenous administration, read-out: LD50 intravenous administration
[2] = oral administration, read-out: LD50 oral administration
[3] = isoprenaline increase in contractile force, read-out: pA2, effect on inotropism (converted)
[4] = isoprenaline tachycardia, read-out: pA2, effect on chronotropism (converted)
[5] = isoprenaline increase in contractile force

Row | SMILES | Effect on inotropism, ratio of activity to that of metoprolol (β1 -adrenergic receptors) | Kb (β1 -adrenergic receptors; [3]) | pA2, effect on chronotropism (β1 -adrenergic receptors; isoprenaline tachycardia) | Effect on chronotropism, ratio of activity to that of metoprolol (β1 -adrenergic receptors; isoprenaline tachycardia) | Kb (β1 -adrenergic receptors; [4]) | pA2, effect on inotropism (β1 -adrenergic receptors; [5]) | LD50 at 120 h (in vivo; [1]) | LD50 at 120 h (in vivo; [2])
1 | COCCc1ccc(OCC(O)CNC(C)C)cc1 (stereo not shown) [METOPROLOL, 1-[4-(2-methoxy-ethyl)-phenoxy]-3-isopropylamino-propan-2-ol, reference compound] |  |  |  |  |  |  | 62 mg/kg | 1050 mg/kg
2 | CC(C)NCC(O)COc1ccc(OCCOCC2CC2)cc1 (stereo not shown) [SL D.177, 1-{4-[2-(cyclopropylmethoxy)-ethoxy]-phenoxy}-3-isopropylamino-propan-2-ol] | 1.1 | 10.7 nM |  | 2.8 | 8.13 nM |  | 76 mg/kg | 610 mg/kg
3 | CC(C)(C)NCC(O)COc1ccc(OCCOCC2CC2)cc1 (stereo not shown) [SL D.178, 1-{4-[2-(Cyclopropylmethoxy)-ethoxy]-phenoxy}-3-t-butylamino-propan-2-ol] | 1.0 | 11 nM |  | 1.4 | 20 nM |  | 53 mg/kg | 445 mg/kg
4 | CC(C)NCC(O)COc1ccc(CCOCC2CC2)cc1 (stereo not shown) [SL D.212, 1-{4-[2-(Cyclopropylmethoxy)ethyl]-phenoxy}-3-isopropylamino-propan-2-ol] |  |  |  |  |  |  | 37 mg/kg | 944 mg/kg
5 | CC(C)NCC(O)COc1ccc(COCC2CC2)cc1 (stereo not shown) [SL D.224, 1-[4-(cyclopropylmethoxymethyl)-phenoxy]-3-isopropylamino-propan-2-ol] |  |  |  |  |  |  | 88 mg/kg | 1400 mg/kg
6 | CC(C)NCC(O)COc1ccc(OCC2CC2)cc1 (stereo not shown) [SL D.230, 1-[4-(Cyclopropylmethoxy)-phenoxy]-3-isopropylamino-propan-2-ol] | 2.1 | 5.37 nM |  | 4.6 | 5.01 nM |  | 48 mg/kg | 750 mg/kg
7 | CC(C)(C)NCC(O)COc1ccc(OCC2CC2)cc1 (stereo not shown) [SL D.231, 1-[4-(Cyclopropylmethoxy)-phenoxy]-3-t-butylamino-propan-2-ol] | 0.3 | 33.9 nM |  | 0.8 | 28.8 nM |  | 36 mg/kg | 1200 mg/kg
8 | CC(C)NCC(O)COc1ccc(CCOCC2CCC2)cc1 (stereo not shown) [SL D.254, 1-{4-[2-(Cyclobutylmethoxy)-ethyl]-phenoxy}-3-isopropylamino-propan-2-ol] |  |  |  |  |  |  | 28 mg/kg | 658 mg/kg
9 | CC(C)NCC(O)COc1ccc(CCOCC2CCCCC2)cc1 (stereo not shown) [SL D.268, 1-{4-[2-(Cyclohexylmethoxy)-ethyl]-phenoxy}-3-isopropylamino-propan-2-ol] | 0.03 | 398 nM | 6.84 | 0.2 |  |  | 35 mg/kg | 
10 | CC(C)NCC(O)COc1ccc(CCOCC2CCCC2)cc1 (stereo not shown) [SL D.291] | 0.08 | 148 nM | 6.89 | 0.2 |  |  | 56 mg/kg | 
11 | CC(C)NCC(O)COc1ccc(OCCCC2CC2)cc1 (stereo not shown) [SL D.311, 1-(4-Cyclopropylpropoxy-phenoxy)-3-isopropylamino-propan-2-ol] | 0.2 | 52.5 nM |  | 0.2 | 91.2 nM |  | 71 mg/kg | 
12 | CC(CCc1ccc(F)cc1)NCC(O)COc1ccc(CCOCC2CCC2)cc1 (stereo not shown) [SL E.059] | 0.02 | 692 nM | 5.54 |  |  |  |  | 
13 | CC(C)NCC(O)COc1ccc(CCS(=O)(=O)CC2CCC2)cc1 (stereo not shown) [SL E.060, 1-[4-(2-Cyclobutylmethylsulphonyl-ethyl)phenoxy]-3-isopropylamino-propan-2-ol] | 1.0 |  |  | 1.9 | 11.7 nM | 7.94 |  | 
14 | CC(C)NCC(O)COc1ccc(OCCOCC2CCC2)cc1 (stereo not shown) [SL E.096, 1-[4-(2-cyclobutylmethoxyethoxy)-phenoxy]-3-isopropylamino-propan-2-ol] | 2.2 | 5.13 nM |  | 4.1 | 5.62 nM |  |  | 

The next lines start with results.

Row | Effect on inotropism, ratio of activity to that of metoprolol (β1 -adrenergic receptors) | Kb (β1 -adrenergic receptors; [3]) | pA2, effect on chronotropism (β1 -adrenergic receptors; isoprenaline tachycardia) | Effect on chronotropism, ratio of activity to that of metoprolol (β1 -adrenergic receptors; isoprenaline tachycardia) | Kb (β1 -adrenergic receptors; [4]) | pA2, effect on inotropism (β1 -adrenergic receptors; [5]) | SMILES | LD50 at 120 h (in vivo; [1]) | LD50 at 120 h (in vivo; [2])
15 | 0.09 | 132 nM | 7.11 | 0.3 |  |  | CC(C)NCC(O)COc1ccc(CCSCC2CCC2)cc1 (stereo not shown) [SL D.056, 1-[4-(2-Cyclobutylmethylthio-ethyl)-phenoxy]-3-isopropylamino-propan-2-ol] |  | 
16 | 0.8 | 14.8 nM |  | 1.3 | 17.4 nM |  | CC(C)NCC(O)COc1ccc(OCCSCC2CC2)cc1 (stereo not shown) [SL D.299, 1-[4-(2-Cyclopropylmethylthio-ethoxy)-phenoxy]-3-isopropylamino-propan-2-ol] |  | 
17 | 0.02 | 617 nM | 6.47 | 0.07 |  |  | CC(CC#N)NCC(O)COc1ccc(CCOCC2CCC2)cc1 (stereo not shown) [SL E.024, 1-[4-(2-Cyclobutylmethoxy-ethyl)-phenoxy]-3-(1-methyl-2-cyano-ethylamino)-propan-2-ol] |  | 
18 | 0.2 |  |  | 0.6 | 37.2 nM | 7.21 | CC(=O)NCCNCC(O)COc1ccc(CCOCC2CCC2)cc1 (stereo not shown) [SL E.025, 1-[4-(2-Cyclobutylmethoxy-ethyl)-phenoxy]-3-(2-acetylamino-ethylamino)-propan-2-ol] |  | 
19 | 0.01 | 1230 nM | 5.11 |  |  |  | CC(CCc1ccccc1)NCC(O)COc1ccc(CCOCC2CCC2)cc1 (stereo not shown) [SL E.049] |  | 
20 | 0.1 | 89.1 nM | 7.02 | 0.2 |  |  | CC(C)NCC(O)COc1ccc(CCCOCC2CCC2)cc1 (stereo not shown) [SL E.061] |  | 
21 | 0.4 | 30.2 nM | 7.44 | 0.6 |  |  | CC(C)NCC(O)COc1ccc(COCC2CCC2)cc1 (stereo not shown) [SL E.080] |  | 
22 | 0.1 | 74.1 nM | 7.75 | 1.3 |  |  | COc1ccc(CCNCC(O)COc2ccc(CCOCC3CCC3)cc2)cc1OC (stereo not shown) [SL E.111] |  | 
23 | 0.08 | 141 nM |  | 0.1 | 162 nM |  | CC(C)NCC(O)COc1ccc(OCCS(=O)(=O)CC2CC2)cc1 (stereo not shown) [SL E.155, 1-[4-(2-Cyclopropylmethylsulphonyl-ethoxy)phenoxy]-3-isopropylamino-propan-2-ol] |  | 
24 | 1.00 | 10.7 nM |  | 4.17 | 5.5 nM |  | CC(C)NCC(O)COc1ccc(OCCOCC2CCCC2)cc1 (stereo not shown) [SL E.203] |  | 
